Results: US20070299114A1, “Biaryl Derivatives” (Shionogi & Co., Ltd., priority 2004, published 2007)

Columns and labels:
Human lymphocyte = assay: suppression of IgE antibody production in human lymphocyte stimulated with anti-human CD40 antibody and IL-4; assay type: cell-based; details: 216 h; IgE antibody production by human lymphocyte, anti-human CD40 antibody + IL-4, cultured for 9 days, ELISA
Method: Effect of Suppressing Antibody Production Using Human Lymphocyte
1) Human Peripheral Blood
Human peripheral blood was collected with a plastic syringe containing heparin (final concentration 1.5%) from a vein of an adult healthy person, and subjected to collection of lymphocyte immediately after blood collection.
To the RPMI medium (Sigma) were added 10% of fetal bovine serum, (HyClone Lab.) which had been immobilized at 56° C. for 30 minutes, penicillin (100 units/ml) and streptomycin (100 μg/ml) (Invitrogen), which was used.
The present compound was dissolved in dimethyl sulfoxide (Nakalai Tesque) to 2 mg/ml and, thereafter, the solution was diluted with a medium to a final concentration of 0.01 pg/ml to 10 μg/ml.
Human peripheral blood was mixed with an equal amount of PBS-10 mM EDTA, 10 ml of this was overlaid on a tube containing 3 ml of Ficoll-Paque Plus (Pharmacia Biotech), followed by centrifugation at room temperature and 300×g for 30 minutes to obtain a lymphocyte layer. The collected cell suspension was centrifugation-washed with a sterilized Hanks's balanced salt solution (Invitrogen), passed through a nylon mesh, and centrifugation-washed with a medium, which was used in an experiment as human lymphocyte.
5) Inducement of IgE Antibody Production Due to B cell Stimulation
Human lymphocyte was seeded on a 96-well culturing plate (Sumitomo Bakelite) to 2×10^5 cells per well, and the compound, an anti-human CD40 antibody (Pharmingen, 2 μg/ml), and human recombinant interleukin-4 (IL-4) (PEPROTECH, 0.1 μg/ml) were added, followed by culturing at 37° C. under the presence of 5% CO2 (0.2 ml/well). After cultured for 9 days, an amount of an antibody produced in the supernatant was quantitated by a specific ELISA method.
6) Quantitation of IgE Antibody
For quantitating IgE, a commercially available kit, MESACUP IgE Test (Medical & Biological Laboratories Co., Ltd.) was used. An experimental method was according to the manual, an experiment was performed duplicately, and an average was obtained.

[1] = target: T1, dihydrooroate dehydrogenase (Homo sapiens, UniProt Q02127); assay: dihydroorotate dehydrogenase inhibition, U-937 mitochondrial/microsomal fraction, DCIP absorbance at 620 nm; assay type: biochemical; details: DHODH of human U-937 cell mitochondrial/microsomal fraction; 37° C., 120 minutes
T1 construct: ultracentrifugation at 4° C. and 120,000×g for 60 minutes afforded a mitochondrial/microsomal fraction; endogenous in cells; host or cells: U-937 (human histiocytic lymphoma cell line), mitochondrial/microsomal fraction
T1 sequence (Q02127 whole entry): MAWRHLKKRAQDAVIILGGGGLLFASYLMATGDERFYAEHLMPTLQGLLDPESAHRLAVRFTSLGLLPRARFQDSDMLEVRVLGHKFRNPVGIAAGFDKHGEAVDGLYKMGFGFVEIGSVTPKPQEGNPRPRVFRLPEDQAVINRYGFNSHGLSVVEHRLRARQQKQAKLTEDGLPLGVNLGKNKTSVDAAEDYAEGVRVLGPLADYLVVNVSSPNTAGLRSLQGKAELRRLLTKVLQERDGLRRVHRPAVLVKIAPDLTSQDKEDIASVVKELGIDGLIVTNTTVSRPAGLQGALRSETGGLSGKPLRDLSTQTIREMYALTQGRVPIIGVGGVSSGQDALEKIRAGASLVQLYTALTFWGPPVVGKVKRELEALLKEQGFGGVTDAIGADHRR
Method: Method of Testing dihydrooroate dehydrogenase Inhibition
Human U-937 cell (human histiocytic lymphoma cell line) was sonicated in a homogenizing buffer (20 mM Tris-HC1, pH 7.4, containing 2 mM EDTA and protease inhibitor cocktail), and this was centrifuged at 4° C. and 1,200×g for 15 minutes to remove cell debris. Further, ultracentrifugation at 4° C. and 120,000×g for 60 minutes afforded a mitochondrial/microsomal fraction. The resulting fraction was quantitated for a protein, and prepared to 10 mg/ml, which was freezing-stored in a −40° C. in a refrigerator until measurement. To 150 μl of the reaction solution (50 mM Tris-HC1, pH 7.4, containing 0.1% Triton X-100, 1 mM KCN, 100 μM coenzyme Q10, 200 μM DCIP), were added 10 μl of a dilution series of the compound and 0.2 mg of a mitochondrial/microsomal fraction, followed by pre-incubation at 37° C. for 30 minutes. Then, 20 μl of a 5 mM DHO solution (final concentration […]), which is a substrate, was added, this was incubated at 37° C. for 120 minutes, and an absorbance at a measurement wavelength of 620 nm was measured. A rate of suppression of a compound at each concentration relative to a change in an absorbance due to the enzyme reaction was obtained, and a concentration indicating 50% inhibition (IC50 value) was calculated to assess the inhibition activity of the compound.

anti-OVA IgE antibody = assay: suppression of IgE antibody production to anti-ovalbumin (OVA) in immunized mice, PCA titer; assay type: in vivo; details: anti-OVA IgE antibody value (PCA titer, Log2 of maximum serum dilution rate) in BALB/c mice
Method: Effect of Suppression of IgE Antibody Production to Anti-Ovalbumin (OVA)
BALB/c mice (female, 8 to 10 week old) purchased from Japan Charles River (Kanagawa) and Wistar rats (female, 8 to 10 week old) purchased from Japan SLC (Sizuoka) were used.
BALB/c mice were immunized by intraperitoneally injecting 0.2 ml of a solution obtained by suspending 2 μg of ovalbumin (OVA) and an aluminum hydroxide gel (1 mg) in a brine. After ten days, blood was taken from a heart, the serum was separated, and an IgE antibody value was measured.
[…] Administration was performed from immunization date to the day before blood collection for consecutive 10 days.
4) Measurement of Anti-OVA IgE Antibody Value (PCA Titer)
The resulting mouse serum was prepared into a 2-fold dilution series with a brine, and each 50 μl of this was subcutaneously injected into a back of a pre-shaved Wistar rat. After 24 hours, 0.5 ml of a brine containing 1 mg of OVA and 5 mg of an Evans Blue dye was intravenously injected to induce a passive skin anaphylactic reaction (PCA).

[2] = dose 10 mg/kg orally for consecutive 10 days
[3] = dose 40 mg/kg orally for consecutive 10 days

| Compound | IC50 (Human lymphocyte) [ng/mL] | PCA (anti-OVA IgE antibody; [2]) | PCA (anti-OVA IgE antibody; [3]) | also measured |
| --- | --- | --- | --- | --- |
| Cc1cc(-c2ccc(NC3CCCC3)cc2)c(C)cc1/C=C(\F)C(=O)NC(C)C [Compound 397] | 0.3 |  |  | IC50 [1]: 6.84 nM; PCA (anti-OVA IgE antibody; dose 20 mg/kg orally for consecutive 10 days): 0< |
| C/C(=C\c1cc(F)c(-c2ccc(NC(C)C)cc2)cc1F)C(=O)NCC(=O)O [Compound 21] |  |  |  | melting point: 156 to 158 °C |
| C/C(=C\c1cc(C)c(-c2ccc(NC(C)C)cc2F)cc1C)C(=O)NC(C)C [Compound 122] | 0.5 | 4.7 |  | IC50 [1]: 10.5 nM |
| Cc1cc(-c2ccc(NC(C)C)cc2F)c(C)cc1/C=C(/F)C(=O)NC(C)C [Compound 201] | 0.6 | 5.3 |  | IC50 [1]: 5.17 nM |
| CC/C(=C\c1c(C)c(F)c(-c2ccc(NC(C)C)cc2)c(C)c1F)C(=O)N[C@H](C)C(=O)O [Compound 495] | 41 | 4.7 |  |  |
| COc1c(C)c(-c2ccc(NC(C)C)cc2)c(OC)c(C)c1/C=C(\C)C(=O)O [Compound 526] | 0.9 |  | 2.7 |  |
| COc1c(C)c(-c2ccc(NCc3ccc(C)o3)cc2)c(OC)c(C)c1/C=C(\C)C(=O)O [Compound 571] | 6.4 | 1.3 |  |  |
| C/C(=C\c1c(C)c(F)c(-c2ccc(NC(C)C)cc2)c(C)c1F)C(=O)O [Compound 486] | 13.5 | 0< |  |  |
| COc1c(C)c(-c2ccc(NC3CCCCC3)cc2)c(OC)c(C)c1/C=C(\C)C(=O)O [Compound 559] | 7.2 | 4 |  |  |
| C/C(=C\C(=O)NC(C)C)c1cc(C)c(-c2ccc3[nH]ccc3c2)cc1C [Compound 252] | 75 |  | 0< | IC50 [1]: 13.6 nM |
| CC/C(=C\c1c(C)c(F)c(-c2ccc(NC(C)C)cc2)c(C)c1F)C(=O)O [Compound 493] | 9.4 | 4.0 |  |  |
| C/C(=C\c1cc(C)c(-c2ccc(NC(C)C)cc2)cc1C)C(=O)NC1CCCCC1 [Compound 80] | 4.6 | 5.3 |  |  |
| C/C(=C\c1ccc(-c2ccc3[nH]ccc3c2)cc1)C(=O)NC1CCCC1 [Compound 4] |  |  |  | melting point: 154 to 157 °C |
| COc1cc(-c2ccc(NC(C)C)cc2F)c(OC)cc1/C(C)=C/C(=O)NC(C)C [Compound 40] | 3.7 |  | 1.3 |  |
| COc1cc(-c2ccc(NC(C)C)cc2F)c(OC)cc1/C=C(\C)C(=O)O [Compound 22] |  |  |  | melting point: 213 to 216 °C |
| C/C(=C\c1ccc(-c2ccc3[nH]ccc3c2)cc1)C(=O)O [Compound 1] |  |  |  | melting point: 195 to 198 °C |
| COc1c(C)c(-c2ccc(NC3CCCCC3)cc2)c(OC)c(C)c1/C=C(\C)C(=O)N[C@H](C)C(=O)O [Compound 562] | 8.4 |  | 0< |  |
| CCS(=O)(=O)NC(=O)/C(C)=C/c1cc(C)c(-c2ccc(NCc3ccco3)cc2F)cc1C [Compound 347] | 60 |  | 2.0 | IC50 [1]: 6.16 nM |
| C/C(=C\c1c(C)c(C)c(-c2ccc(NC(C)C)cc2F)c(C)c1C)C(=O)N[C@H](C)C(=O)O [Compound 420] | 39 |  | 0< |  |
| CCC/C=C/CNc1ccc(-c2c(C)c(OC)c(/C=C(\C)C(=O)O)c(C)c2OC)cc1 [Compound 573] | 6.6 | 0< |  |  |
